Results taken from ChEMBL document CHEMBL1128858, “Z-()-1-azabicyclo[2.2.1]heptan-3-one, O-(3-aryl-2-propynyl) oximes as potential m1-subtype selective muscarinic agonists” (Bioorg Med Chem Lett, 1995).

Tests used:
[1] = molecular target: Muscarinic acetylcholine receptor; assay: Binding affinity towards muscarinic receptor using [3H]cis-methyldioxolane (CMD) to label agonist sites in membrane preparations from rat neocortex; format: tissue-based
[2] = molecular target: T1, Muscarinic acetylcholine receptor (Rattus norvegicus) (UniProt P08482+P08483+P08485+P08911+P10980); assay: Ratio of QNB/CMD binding affinities to predict agonistic efficacy at muscarinic receptor; format: protein assay
[3] = molecular target: Muscarinic acetylcholine receptor; assay: Binding affinity towards muscarinic receptor using [3H]quinuclidinyl benzilate (QNB) to label antagonist sites in membrane preparations from rat neocortex
[4] = molecular target: T2, Muscarinic acetylcholine receptor M2 (Homo sapiens) (UniProt P08172); assay: Inhibitory activity against forskolin-stimulated accumulation of cyclic adenosine monophosphate (cAMP) in CHO cells expressing human m2 receptor (max. concentration. 1 mM); format: functional, cell-based
T2 sequence (whole entry): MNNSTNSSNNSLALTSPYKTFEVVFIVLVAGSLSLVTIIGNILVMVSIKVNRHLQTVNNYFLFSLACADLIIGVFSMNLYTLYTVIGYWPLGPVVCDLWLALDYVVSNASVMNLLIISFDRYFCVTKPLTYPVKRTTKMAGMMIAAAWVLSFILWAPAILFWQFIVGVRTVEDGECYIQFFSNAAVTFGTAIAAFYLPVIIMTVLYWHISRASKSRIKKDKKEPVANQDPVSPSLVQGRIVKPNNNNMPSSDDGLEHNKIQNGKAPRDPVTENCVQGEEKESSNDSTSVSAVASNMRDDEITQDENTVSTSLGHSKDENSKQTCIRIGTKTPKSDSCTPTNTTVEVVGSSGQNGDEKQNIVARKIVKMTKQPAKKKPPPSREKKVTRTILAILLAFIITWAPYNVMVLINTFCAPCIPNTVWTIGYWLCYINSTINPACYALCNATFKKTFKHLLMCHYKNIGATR

[5] = molecular target: T3, Muscarinic acetylcholine receptor M4 (Homo sapiens) (UniProt P08173); assay: Inhibitory activity against forskolin-stimulated accumulation of cyclic adenosine monophosphate (cAMP) in CHO cells expressing human m4 receptor (max. concentration. 1 mM); format: functional, cell-based
T3 sequence (whole entry): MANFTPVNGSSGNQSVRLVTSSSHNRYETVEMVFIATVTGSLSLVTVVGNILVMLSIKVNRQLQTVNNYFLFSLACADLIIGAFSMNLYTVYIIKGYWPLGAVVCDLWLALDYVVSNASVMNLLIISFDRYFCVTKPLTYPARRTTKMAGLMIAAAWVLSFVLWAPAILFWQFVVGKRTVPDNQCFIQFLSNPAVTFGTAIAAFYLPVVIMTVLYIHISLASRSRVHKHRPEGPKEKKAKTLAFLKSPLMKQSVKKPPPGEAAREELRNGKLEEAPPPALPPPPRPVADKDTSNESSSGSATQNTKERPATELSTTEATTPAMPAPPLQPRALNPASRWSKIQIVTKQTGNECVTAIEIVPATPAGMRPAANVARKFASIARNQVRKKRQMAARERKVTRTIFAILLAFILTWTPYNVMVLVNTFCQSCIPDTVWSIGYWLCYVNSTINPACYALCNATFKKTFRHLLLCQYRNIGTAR

[6] = molecular target: T4, Muscarinic acetylcholine receptor M5 (Homo sapiens) (UniProt P08912); assay: Ability to stimulate inositol phosphate(PI) accumulation in CHO cells expressing human m5 receptor (max. concentration. 100 uM); format: functional, cell-based
T4 sequence (whole entry): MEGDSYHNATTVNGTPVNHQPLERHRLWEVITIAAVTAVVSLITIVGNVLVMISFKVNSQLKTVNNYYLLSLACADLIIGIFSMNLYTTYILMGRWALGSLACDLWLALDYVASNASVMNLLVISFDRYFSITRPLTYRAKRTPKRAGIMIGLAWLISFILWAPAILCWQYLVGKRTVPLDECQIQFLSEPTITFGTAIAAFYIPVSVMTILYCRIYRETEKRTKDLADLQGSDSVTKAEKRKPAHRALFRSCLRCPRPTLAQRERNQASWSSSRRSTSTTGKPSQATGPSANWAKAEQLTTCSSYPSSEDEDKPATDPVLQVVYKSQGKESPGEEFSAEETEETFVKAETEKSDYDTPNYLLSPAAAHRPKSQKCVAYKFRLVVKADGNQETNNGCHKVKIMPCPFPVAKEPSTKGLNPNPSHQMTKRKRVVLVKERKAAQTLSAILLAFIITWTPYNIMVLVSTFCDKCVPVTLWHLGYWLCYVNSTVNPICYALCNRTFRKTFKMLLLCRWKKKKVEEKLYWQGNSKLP

[7] = molecular target: T1, Muscarinic acetylcholine receptor (Rattus norvegicus); assay: Binding affinity towards muscarinic receptor using [3H]cis-methyldioxolane (CMD) to label agonist sites in membrane preparations from rat neocortex at 1 uM; format: tissue-based
[8] = molecular target: T1, Muscarinic acetylcholine receptor (Rattus norvegicus); assay: Binding affinity towards muscarinic receptor using [3H]quinuclidinyl benzilate (QNB) to label antagonist sites in membrane preparations from rat neocortex at 100 nM
[9] = molecular target: T1, Muscarinic acetylcholine receptor (Rattus norvegicus); assay: Binding affinity towards muscarinic receptor using [3H]cis-methyldioxolane (CMD) to label agonist sites in membrane preparations from rat neocortex at 100 nM; format: tissue-based

Structure (SMILES) | IC50 [1] | Ratio [2] | IC50 [3] | further results
C(#Cc1ccccc1)CO/N=C1\CN2CCC1C2 (stereo not given) | 0.046 µM | 109 | 5.012 µM | inhibition [4]: 0%; inhibition [5]: 0%; PI [6]: 1%
C(#Cc1ccc2c(c1)OCCO2)CO/N=C1\CN2CCC1C2 (stereo not given) | – | – | – | inhibition [7]: 39%; inhibition [8]: 0%
Cc1ccc(C#CCO/N=C2\CN3CCC2C3)cc1 (stereo not given) | 0.089 µM | 125 | 11.089 µM | –
FC(F)(F)c1cccc(C#CCO/N=C2\CN3CCC2C3)c1 (stereo not given) | 0.032 µM | 134 | 4.237 µM | –
Clc1ccc(C#CCO/N=C2\CN3CCC2C3)cc1 (stereo not given) | 0.053 µM | 119 | 6.3 µM | –
Fc1ccc(C#CCO/N=C2\CN3CCC2C3)cc1 (stereo not given) | 0.03 µM | 204 | 6.092 µM | –
Clc1cc(Cl)cc(C#CCO/N=C2\CN3CCC2C3)c1 (stereo not given) | – | – | – | inhibition [7]: 53%; inhibition [8]: 18%
FC(F)(F)c1cc(C#CCO/N=C2\CN3CCC2C3)cc(C(F)(F)F)c1 (stereo not given) | – | – | – | inhibition [7]: 55%; inhibition [8]: 18%
Cc1ccccc1C#CCO/N=C1\CN2CCC1C2 (stereo not given) | – | – | – | inhibition [9]: 82%; inhibition [8]: 56%
C[N+](C)(C)CCOC(N)=O | – | – | – | inhibition [4]: 58%; inhibition [5]: 60%; PI [6]: 100%
C(#Cc1ccc2c(c1)OCO2)CO/N=C1\CN2CCC1C2 (stereo not given) | 0.023 µM | 110 | 2.547 µM | –

More lines, main results first:

IC50 [1] | Ratio [2] | IC50 [3] | Structure (SMILES) | further results
0.14 µM | 303 | 42.449 µM | COc1ccc(C#CCO/N=C2\CN3CCC2C3)cc1OC (stereo not given) | –
0.019 µM | 202 | 3.882 µM | Clc1cccc(C#CCO/N=C2\CN3CCC2C3)c1 (stereo not given) | –
0.219 µM | 81 | 17.658 µM | COc1ccccc1C#CCO/N=C1\CN2CCC1C2 (stereo not given) | –
0.012 µM | 107 | 1.305 µM | Clc1ccccc1C#CCO/N=C1\CN2CCC1C2 (stereo not given) | –
0.037 µM | 132 | 4.925 µM | Fc1cccc(C#CCO/N=C2\CN3CCC2C3)c1 (stereo not given) | –
0.028 µM | 250 | 6.927 µM | COc1cccc(C#CCO/N=C2\CN3CCC2C3)c1 (stereo not given) | inhibition [4]: 0%; inhibition [5]: 0%; PI [6]: 11%
0.028 µM | 186 | 5.195 µM | Cc1cccc(C#CCO/N=C2\CN3CCC2C3)c1 (stereo not given) | –
0.028 µM | 226 | 6.399 µM | O=[N+]([O-])c1cccc(C#CCO/N=C2\CN3CCC2C3)c1 (stereo not given) | –
0.11 µM | 119 | 13.101 µM | COc1ccc(C#CCO/N=C2\CN3CCC2C3)cc1 (stereo not given) | –
0.028 µM | 159 | 4.443 µM | Fc1ccccc1C#CCO/N=C1\CN2CCC1C2 (stereo not given) | –
